# Data taken from patent US20020137929A1, “1 - (3-heterocyclylphenyl) isothiourea, -isourea, -guanidine and -amidine herbicidal agents” (Intellectual Property Department, BASF Aktiengesellschaft, priority 1998, published 2002).
# Assays:
# [1] = system: AMBEL (Ragweed, Common); assay: Preemergence herbicidal evaluation; type: in vivo, Ambrosia artemisifolia; details: rated 4-5 weeks after treatment
# Outline: (§1)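 Preemergence soil application of compound, sprayed in aqueous acetone at rates equivalent to about 0.0156 to 0.500 kg per hectare onto freshly sown cups. Plant response was judged by eye on a 0-9 scale four to five weeks later.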
# [2] = system: CYPSE (Flatsedge); assay: Preemergence weed control under flooded paddy conditions; type: in vivo, Cyperus serotinus; details: rated 3-4 weeks after treatment
# Outline: (§2)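 Using flooded silt loam (water 1.5 to 3 cm deep), seeds sown in the top 0.5 cm were exposed preemergence to compound pipetted into the flood at about 0.0313 to 0.500 kg/ha. Effects were scored 0-9 by eye three to four weeks later.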
# [3] = system: CHEAL (Lambsquarters, Common); assay: Postemergence herbicidal evaluation; type: in vivo, Chenopodium album
# Outline: (§3)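 Visual 0–9 rating versus control (stand, vigor, malformation, size, chlorosis, overall appearance), taken four to five weeks post-spray. Two-week-old seedlings received roughly 0.0156–0.500 kg/ha active in acetone/water (50/50) with 0.5% TWEEN 20 via nozzle at 40 psi.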
# [4] = system: CYPIR (Rice Flatsedge); assay: Postemergence weed control under flooded paddy conditions; type: in vivo, Cyperus iria; details: postemergence weeds, 3-4 weeks after treatment
# Outline: (§4)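 With weeds 3 to 5 cm tall and rice at the 1.5 to 2.5 leaf stage, containers were flooded and water held 1.5 to 3 cm above soil. Compounds in 50/50 v/v aqueous/acetone went into the flood water at about 0.0313 to 0.500 kg/ha a.i. Effects were visually rated 0–9 against controls after three to four weeks in the greenhouse.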
# [5] = system: ZEAMX (Corn, Field); assay: Postemergence herbicidal evaluation; type: in vivo, Zea mays
# Outline: as §3
# [6] = system: GLXMAW (Soybean, Williams); assay: Preemergence herbicidal evaluation; type: in vivo, Glycine max, (L.) Merr. cv Williams; details: rated 4-5 weeks after treatment
# Outline: as §1
# [7] = system: GALAP (Galium); assay: Postemergence herbicidal evaluation; type: in vivo, Galium aparine
# Outline: as §3
# [8] = system: CYPSE (Flatsedge); assay: Postemergence weed control under flooded paddy conditions; type: in vivo, Cyperus serotinus; details: postemergence weeds, 3-4 weeks after treatment
# Outline: as §4
# [9] = system: ORYSAT (Rice, Tebonnet); assay: Preemergence herbicidal evaluation; type: in vivo, Oryza sativa, (L.) Tebonnet; details: rated 4-5 weeks after treatment
# Outline: as §1
# [10] = system: SAGPY (Arrowhead (Pygmaea)); assay: Postemergence weed control under flooded paddy conditions; type: in vivo, Sagittaria pygmaea; details: postemergence weeds, 3-4 weeks after treatment
# Outline: as §4
# [11] = system: ORYSAT (Rice, Tebonnet); assay: Postemergence herbicidal evaluation; type: in vivo, Oryza sativa, (L.) Tebonnet
# Outline: as §3
# [12] = system: CASOB (Sicklepod); assay: Postemergence herbicidal evaluation; type: in vivo, Cassia obtusifolia
# Outline: as §3
# [13] = system: SETVI (Foxtail, Green); assay: Preemergence herbicidal evaluation; type: in vivo, Setaria viridis; details: rated 4-5 weeks after treatment
# Outline: as §1
# [14] = system: MOOVA (Monochoria); assay: Preemergence weed control under flooded paddy conditions; type: in vivo, Monochoria vaginalis; details: rated 3-4 weeks after treatment
# Outline: as §2
compound,measurement,setting,value
"CCOC(=O)CN1C(=O)C(Cc2ccccc2OC(C)C(=O)OC)SC1=Nc1cc(-n2c(=O)cc(C(F)(F)F)n(C)c2=O)c(F)cc1Cl (centres unmarked) [Compound 50, 2-{{2-Chloro-5-[3,6-dihydro-3-methyl-2,6-dioxo-4-(trifluoromethyl)-1(2H)-pyrimidinyl]-4-fluoro-phenyl}imino}-5-(o-hydroxybenzyl)-4-oxo-3-thiazolidineacetic acid, ethyl ester, ester with methyl lactate]",Preemergence herbicidal rating AMBEL,[1]; rate 0.0625 kg/ha,0.0
same,Preemergence herbicidal rating AMBEL,[1]; rate 0.1250 kg/ha,0.0
same,Preemergence herbicidal rating AMBEL,[1]; rate 0.2500 kg/ha,0.0
same,Herbicidal rating CYPSE,[2]; 0.0313 kg/ha,0.0
same,Herbicidal rating CYPSE,[2]; 0.0625 kg/ha,0.0
same,Herbicidal rating CYPSE,[2]; 0.1250 kg/ha,0.0
same,Herbicidal rating CYPSE,[2]; 0.2500 kg/ha,0.0
same,Postemergence herbicidal rating CHEAL,[3]; Rate 0.0156 kg/ha,0.0
same,Postemergence herbicidal rating CHEAL,[3]; Rate 0.0313 kg/ha,3.0
same,Postemergence herbicidal rating CHEAL,[3]; Rate 0.0625 kg/ha,5.0
same,Herbicidal rating CYPIR,[4]; rate 0.0313 kg/ha,0.0
same,Herbicidal rating CYPIR,[4]; rate 0.0625 kg/ha,0.0
same,Herbicidal rating CYPIR,[4]; rate 0.1250 kg/ha,0.0
same,Herbicidal rating CYPIR,[4]; rate 0.2500 kg/ha,0.0
same,Postemergence herbicidal rating ZEAMX,[5]; Rate 0.0156 kg/ha,5.0
same,Postemergence herbicidal rating ZEAMX,[5]; Rate 0.0313 kg/ha,5.0
same,Postemergence herbicidal rating ZEAMX,[5]; Rate 0.0625 kg/ha,5.5
same,Preemergence herbicidal rating GLXMAW,[6]; rate 0.0625 kg/ha,0.0
same,Preemergence herbicidal rating GLXMAW,[6]; rate 0.1250 kg/ha,0.0
same,Preemergence herbicidal rating GLXMAW,[6]; rate 0.2500 kg/ha,0.0
same,Postemergence herbicidal rating GALAP,[7]; Rate 0.0156 kg/ha,0.0
same,Postemergence herbicidal rating GALAP,[7]; Rate 0.0313 kg/ha,2.0
same,Postemergence herbicidal rating GALAP,[7]; Rate 0.0625 kg/ha,4.0
same,Herbicidal rating CYPSE,[8]; rate 0.0313 kg/ha,0.0
same,Herbicidal rating CYPSE,[8]; rate 0.0625 kg/ha,0.0
same,Herbicidal rating CYPSE,[8]; rate 0.1250 kg/ha,0.0
same,Herbicidal rating CYPSE,[8]; rate 0.2500 kg/ha,0.0
same,Preemergence herbicidal rating ORYSAT,[9]; rate 0.0625 kg/ha,0.0
same,Preemergence herbicidal rating ORYSAT,[9]; rate 0.1250 kg/ha,0.0
same,Preemergence herbicidal rating ORYSAT,[9]; rate 0.2500 kg/ha,0.0
same,Herbicidal rating SAGPY,[10]; rate 0.0313 kg/ha,2.0
same,Herbicidal rating SAGPY,[10]; rate 0.0625 kg/ha,2.0
same,Herbicidal rating SAGPY,[10]; rate 0.1250 kg/ha,3.0
same,Herbicidal rating SAGPY,[10]; rate 0.2500 kg/ha,3.0
same,Postemergence herbicidal rating ORYSAT,[11]; Rate 0.0156 kg/ha,1.0
same,Postemergence herbicidal rating ORYSAT,[11]; Rate 0.0313 kg/ha,1.0
same,Postemergence herbicidal rating ORYSAT,[11]; Rate 0.0625 kg/ha,2.0
same,Postemergence herbicidal rating CASOB,[12]; Rate 0.0156 kg/ha,0.0
same,Postemergence herbicidal rating CASOB,[12]; Rate 0.0313 kg/ha,1.0
same,Postemergence herbicidal rating CASOB,[12]; Rate 0.0625 kg/ha,2.0
same,Preemergence herbicidal rating SETVI,[13]; rate 0.0625 kg/ha,0.0
same,Preemergence herbicidal rating SETVI,[13]; rate 0.1250 kg/ha,0.0
same,Preemergence herbicidal rating SETVI,[13]; rate 0.2500 kg/ha,0.0
same,Herbicidal rating MOOVA,[14]; 0.0313 kg/ha,0.0
same,Herbicidal rating MOOVA,[14]; 0.0625 kg/ha,0.0
same,Herbicidal rating MOOVA,[14]; 0.1250 kg/ha,3.0
same,Herbicidal rating MOOVA,[14]; 0.2500 kg/ha,7.0
